EP1792623B1, “Use of extracts and constituents of leontopodium as enhancers of cholinergic function” (Leopold-Franzens-Universität Innsbruck, priority 2005, dated 2007)

Key:
acetylcholinesterase = type: biochemical; conditions: c = 100 mM, after 60 min, in comparison to medium control
Protocol: Experiments are carried out applying Ellman's method in a 96-well microplate assay described by Ingkaninan et al, Journal of Chromatography A 827 (2000) p. 6173 and Rhee et al, Journal of Chromatography A 915 (2001) p. 217-223. In addition to buffer A described above, a buffer containing 0.1 M NaCl and 0.02 M MgClx2.6 H2O in buffer A is used for preparing a 3 mM solution of DTNB. For the microplate assay the substrate ATCI is dissolved 15 mM in water (HPLC grade). The enzyme stock solution is diluted with buffer A to get 0.22 U/ml. In the 96-well plates, 25 µl of 15 mM ATCl, 125 µl of 3 mM DTNB, 50 µl of buffer A, and 25 µl of sample (10 mM in MeOH, respectively DMSO (dimethylsulfoxide), diluted ten times with buffer A) are added. […] […] The absorbance of the product (2-nitrobenzoate-5-mercapto thioline) is measured at 405 nm with a Chameleon 5025 (Hidex, Finland) microplate reader 0, 15, 30, 45 and 60 minutes after adding 25 µl of 0.22 U/ml acetylcholinesterase-solution to the reaction mixture. All experiments are performed 4 times (n=4) and the data are statistically processed using the SPSS 11.5 program package. Percentage of inhibition is calculated by comparing the rates for the sample to the blank (10% MeOH, resp. DMSO, in buffer).

[1] = system: release of ACh in rat brain; test: ACh release in nucleus accumbens, push-pull technique, after i.c.v. application; type: in vivo, Sprague-Dawley rats; conditions: 2 µmol i.c.v.
Description: Surgery and push-pull technique: Protocols of experiments were approved by the Bundesministerium für Wissenschaft, Forschung and Kunst, Austria, Kommission für Tierversuchsangelegenheitem. Sprague-Dawley rats (250-280 g) were anaesthetized with urethane 1.2 g/kg. i.p. The head was fixed in a stereotaxic frame and a push-pull cannula (outer tubing: o.d. 0.75 mm, i.d. 0.41 mm; inner tubing: o.d. 0.26 mm, i.d. 0.13 mm) was mounted on a microdrive. This was stereotaxically inserted through a hole in the skull into the nucleus accumbens (coordinates, mm from bregma: AP, +1.2, L, +2.5; V, -7.8) (Paxinos G. Watson H. (1998) The rat brain in stereotaxic coordinates, 4th edn. Academic Press, Sidney.). […] After 1 h of the cannula insertion the samples were collected into tubes kept at -20° C in time periods of 10 min and then stored at -80°C until acetylcholine (ACh) was determined. […]
Determination of acetylcholine (ACh): ACh content in the samples was determined by HPLC with a cation-exchanging analytical column and a post-column reactor followed by electrochemical detection (Damsma et al, 1997; Prast et al; 1998). […] The peroxide was electrochemically detected by a UniJet platin electrode (3mm) at +500 mV with an amperometric detector (BAS LC-4, Bioanalytical Systems, West Lafayette, IN, USA). […] ACh was quantified with external standards that were injected at the beginning and the end of the analysis. […]

14-acetoxy-isocomene
inhibition (%) (acetylcholinesterase): 1.4 ± 8.1% | release of ACh in rat brain [1]: significantly enhance the concentration of neurotransmitters in the CNS
